Test [1] addresses T1, MGL (Rattus norvegicus, UniProt Q8R431).
T1 construct: one g rat brain was homogenized using a Polytron homogenizer; from tissue; host or cells: rat brain homogenate
T1 sequence (Q8R431 1-303): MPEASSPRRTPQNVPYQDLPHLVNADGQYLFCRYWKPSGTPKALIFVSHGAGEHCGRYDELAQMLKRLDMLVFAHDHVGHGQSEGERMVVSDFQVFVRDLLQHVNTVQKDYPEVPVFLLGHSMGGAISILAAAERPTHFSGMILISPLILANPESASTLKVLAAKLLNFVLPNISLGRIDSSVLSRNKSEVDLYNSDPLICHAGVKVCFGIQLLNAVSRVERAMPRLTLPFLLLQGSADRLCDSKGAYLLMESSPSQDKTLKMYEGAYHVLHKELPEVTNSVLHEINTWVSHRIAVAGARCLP
The experiment in a line: 2-AG accumulation assay in rat brain homogenate. Format: biochemical. Conditions: rat brain homogenate; compound 1 μM; 2-AG accumulation as percent of vehicle; read-out: Rat Brain 2AG % VehCntrl (%) @ 1 μM.

The target of test [2] is T2, mutant MGL (Homo sapiens, UniProt Q99685, L169S/L176S).
T2 sequence (Q99685 1-303 L169S/L176S): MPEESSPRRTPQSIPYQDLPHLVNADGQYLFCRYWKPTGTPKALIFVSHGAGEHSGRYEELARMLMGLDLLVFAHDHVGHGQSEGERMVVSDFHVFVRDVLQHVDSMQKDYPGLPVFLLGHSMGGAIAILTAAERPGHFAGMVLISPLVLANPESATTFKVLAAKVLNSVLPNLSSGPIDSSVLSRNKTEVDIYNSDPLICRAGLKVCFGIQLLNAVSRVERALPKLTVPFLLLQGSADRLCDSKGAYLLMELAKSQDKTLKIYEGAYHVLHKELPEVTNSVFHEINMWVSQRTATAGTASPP
In words: MGL ThermoFluor assay - mutant. In kind it is binding.

Test [3] concerns the target T3, purified wild type MGL (wt-MGLL 6H-11-313) (Homo sapiens, UniProt Q99685).
T3 sequence (Q99685 1-303): T2 sequence (Q99685 1-303 L169S/L176S) with S169L, S176L

Where [4] appears, read: ThermoFluor concentration-response, read-out: MGL mutant ThermoFluor Kd.
The mark [5] stands for this setting: compound concentration measured by qNMR, read-out: MGL mutant ThermoFluor qKd (using qNMR conc.).
The mark [6] stands for this setting: ThermoFluor, compound concentration measured by qNMR, read-out: MGL mutant ThermoFluor qKd (μM) (using qNMR conc.).

The values that follow come from patent US8362000B2, “Azetidinyl diamides as monoacylglycerol lipase inhibitors” (Janssen Pharmaceutica NV, priority 2009, dated 2013).

Numbering of substitutions follows the chain as printed. Read-outs that look alike come from different tables or passages of the source.

`O=C(c1ccc2c(ccn2-c2ncccn2)c1)N1CC(N2CCN(C(=O)c3cscn3)CC2)C1` [Cpd 1201, 1-Pyrimidin-2-yl-5-({3-[4-(1,3-thiazol-4-ylcarbonyl)piperazin-1-yl]azetidin-1-yl}carbonyl)-1H-indole]: the 2-AG accumulation, % of vehicle control at 1 µM in test [1] worked out at 475%. For the same molecule, in test [2] (setting [4]), the Kd was found to be 0.179 µM. In addition, the IC50 in test [3] came to 151 nM.

In the case of `O=C(c1ccc2c(-c3ccccc3)c[nH]c2c1)N1CC(N2CCN(C(=O)c3nccs3)CC2)C1` [Cpd 1316], the 2-AG accumulation, % of vehicle control at 1 µM in test [1] was 602%. Moreover, the Kd in test [2] (setting [4]) came out at 0.002 µM. The IC50 in test [3] was less than 5 nM.

Consider `O=C(c1cc(F)c2c(ccn2-c2ccc(F)cc2)c1)N1CC(N2CCN(C(=O)c3cscn3)CC2)C1` [Cpd 1111], for which the 2-AG accumulation, % of vehicle control at 1 µM in test [1] is 508%. The Kd in test [2] (setting [5]) is 0.009 µM. Further, the IC50 in test [3] is 16 nM.

Turning to `O=C(c1nccs1)N1CCN(C2CN(C(=O)c3sc4cc(F)c(C(F)(F)F)cc4c3Cl)C2)CC1` [Cpd 901, 1-(1-{[3-Chloro-6-fluoro-5-(trifluoromethyl)-1-benzothiophen-2-yl]carbonyl}azetidin-3-yl)-4-(1,3-thiazol-2-ylcarbonyl)piperazine], in test [1], the 2-AG accumulation, % of vehicle control at 1 µM came out at 816%. Further, in test [2] (setting [6]), the Kd came out at 0.001 µM. This molecule returned an IC50 in test [3] of less than 5 nM.

For `O=C(c1nn(-c2ccc(Cl)cc2Cl)c2c1CSC/C2=C\c1ccc(F)cc1)N1CC(N2CCN(C(=O)C(F)(F)F)CC2)C1` [Cpd 1022], the 2-AG accumulation, % of vehicle control at 1 µM in test [1] was determined as 189%. The figures for the Kd in test [2] (setting [4]) and in test [2] (setting [5]) were 0.228 µM and 1.06 µM, respectively. This molecule came in with an IC50 in test [3] of 67 nM.

With `O=C(c1ccc(Oc2cccc(C(F)(F)F)c2)cc1)N1CC(N2CCN(C(=O)c3nccs3)CC2)C1` [Cpd 424, 1-(1,3-Thiazol-2-ylcarbonyl)-4-[1-({4-[3-(trifluoromethyl)phenoxy]phenyl}carbonyl)azetidin-3-yl]piperazine], in test [1], the 2-AG accumulation, % of vehicle control at 1 µM came out at 436%. For the same molecule, the Kd in test [2] (setting [4]) was determined as 0.00941 µM. Also, the IC50 in test [3] was less than 5 nM.

With `O=C(c1ccc2c(c1)CCN(c1ncccn1)C2)N1CC(N2CCN(C(=O)c3nccs3)CC2)C1` [Cpd 668], in test [1], the 2-AG accumulation, % of vehicle control at 1 µM is 679%. In addition, the Kd in test [2] (ThermoFluor thermal stability binding assay, read-out: MGL mutant ThermoFluor Kd) was determined as 0.025 µM. For the same molecule, 15 nM corresponded to half-maximal inhibition in test [3] (IC50).

For the molecule `O=C(c1ccccc1)c1ccc(C(=O)N2CC(N3CCN(C(=O)c4nccs4)CC3)C2)cc1` [Cpd 1017], the 2-AG accumulation, % of vehicle control at 1 µM in test [1] was found to be 307%. For the same molecule, the Kd in test [2] (setting [4]) stood at 0.049 µM. This molecule had an IC50 in test [3] of 35 nM.

Turning to `O=C(c1nccs1)N1CCN(C2CN(C(=O)c3cccc4c3ccn4-c3ccc(F)cc3)C2)CC1` [Cpd 1320, 1-(4-Fluorophenyl)-4-({3-[4-(1,3-thiazol-2-ylcarbonyl)piperazin-1-yl]azetidin-1-yl}carbonyl)-1H-indole], the 2-AG accumulation, % of vehicle control at 1 µM in test [1] amounted to 823%. Besides, in test [2] (setting [6]), the Kd was 0.015 µM. The molecule also displayed an IC50 in test [3] of less than 5 nM.

Turning to `O=C(c1nccs1)N1CCN(C2CN(C(=O)c3sc4c(C(F)(F)F)c(F)ccc4c3Cl)C2)CC1` [Cpd 902, 1-(1-{[3-chloro-6-fluoro-7-(trifluoromethyl)-1-benzothiophen-2-yl]carbonyl}azetidin-3-yl)-4-(1,3-thiazol-2-ylcarbonyl)piperazine], in test [1], the 2-AG accumulation, % of vehicle control at 1 µM was 585%. Moreover, the Kd in test [2] (setting [6]) came out at 0.004 µM. Also, the IC50 in test [3] was less than 5 nM.

Consider `Cc1ccc(-n2ccc3cc(C(=O)N4CC(N5CCN(C(=O)C(F)(F)F)CC5)C4)ccc32)nc1` [Cpd 1184, 1-(5-Methylpyridin-2-yl)-5-({3-[4-(trifluoroacetyl)piperazin-1-yl]azetidin-1-yl}carbonyl)-1H-indole], for which, in test [1], the 2-AG accumulation, % of vehicle control at 1 µM worked out at 401%. In addition, in test [2] (ThermoFluor, compound concentration measured by qNMR, read-out: MGL mutant ThermoFluor qKd (using qNMR conc.)), the Kd came to 0.244 µM. Also, the IC50 in test [3] was 86 nM.

On to `O=C(c1ccccc1)N1CCN(C2CN(C(=O)c3ccc4c(ccn4-c4ccc(OC(F)(F)F)cc4)c3)C2)CC1` [Cpd 573], for which, in test [1], the 2-AG accumulation, % of vehicle control at 1 µM amounted to 277%. In addition, the Kd in test [2] (setting [6]) came to 0.1 µM. Moreover, it took 46 nM to reach half-maximal inhibition in test [3] (IC50).
